This passage reports delta Tm Staurosporine positive control, ΔTm and inhibition results from ChEMBL document CHEMBL5303765, “Data for DCP probe BAY-7081” (2023).

The target in data set [1] is T1, Serine/threonine-protein kinase PLK4 (Homo sapiens) (UniProt O00444).
T1 sequence (whole entry): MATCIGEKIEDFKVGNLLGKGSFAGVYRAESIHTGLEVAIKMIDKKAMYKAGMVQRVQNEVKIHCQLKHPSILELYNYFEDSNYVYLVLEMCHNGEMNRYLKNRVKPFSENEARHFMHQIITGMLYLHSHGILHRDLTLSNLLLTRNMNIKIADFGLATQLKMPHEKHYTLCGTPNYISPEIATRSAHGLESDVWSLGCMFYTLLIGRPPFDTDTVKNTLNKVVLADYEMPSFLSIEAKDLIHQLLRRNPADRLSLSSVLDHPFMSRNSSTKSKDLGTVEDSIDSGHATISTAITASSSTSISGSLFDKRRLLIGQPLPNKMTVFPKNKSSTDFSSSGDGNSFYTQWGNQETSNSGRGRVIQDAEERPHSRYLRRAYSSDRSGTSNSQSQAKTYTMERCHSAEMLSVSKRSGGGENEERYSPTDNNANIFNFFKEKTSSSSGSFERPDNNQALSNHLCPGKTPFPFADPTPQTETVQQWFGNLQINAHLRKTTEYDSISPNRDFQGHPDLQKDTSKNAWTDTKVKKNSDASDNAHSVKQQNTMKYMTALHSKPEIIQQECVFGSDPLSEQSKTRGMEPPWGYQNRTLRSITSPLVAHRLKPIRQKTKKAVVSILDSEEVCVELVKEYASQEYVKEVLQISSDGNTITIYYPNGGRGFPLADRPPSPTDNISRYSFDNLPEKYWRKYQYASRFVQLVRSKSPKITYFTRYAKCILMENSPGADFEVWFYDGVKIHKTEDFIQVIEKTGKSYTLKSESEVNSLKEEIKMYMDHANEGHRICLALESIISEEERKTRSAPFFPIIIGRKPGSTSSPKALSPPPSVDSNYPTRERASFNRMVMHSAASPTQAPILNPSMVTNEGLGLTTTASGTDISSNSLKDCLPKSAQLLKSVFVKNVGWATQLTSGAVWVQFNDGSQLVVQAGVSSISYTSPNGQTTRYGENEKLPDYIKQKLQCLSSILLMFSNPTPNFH
Nature of the data set: PLK4 SGC Tm panel (DSF). The note with it: for ΔTm: Compound concentration 10.0 uM.

The target of another data set is T2, Peregrin (Homo sapiens) (UniProt P55201).
T2 sequence (whole entry): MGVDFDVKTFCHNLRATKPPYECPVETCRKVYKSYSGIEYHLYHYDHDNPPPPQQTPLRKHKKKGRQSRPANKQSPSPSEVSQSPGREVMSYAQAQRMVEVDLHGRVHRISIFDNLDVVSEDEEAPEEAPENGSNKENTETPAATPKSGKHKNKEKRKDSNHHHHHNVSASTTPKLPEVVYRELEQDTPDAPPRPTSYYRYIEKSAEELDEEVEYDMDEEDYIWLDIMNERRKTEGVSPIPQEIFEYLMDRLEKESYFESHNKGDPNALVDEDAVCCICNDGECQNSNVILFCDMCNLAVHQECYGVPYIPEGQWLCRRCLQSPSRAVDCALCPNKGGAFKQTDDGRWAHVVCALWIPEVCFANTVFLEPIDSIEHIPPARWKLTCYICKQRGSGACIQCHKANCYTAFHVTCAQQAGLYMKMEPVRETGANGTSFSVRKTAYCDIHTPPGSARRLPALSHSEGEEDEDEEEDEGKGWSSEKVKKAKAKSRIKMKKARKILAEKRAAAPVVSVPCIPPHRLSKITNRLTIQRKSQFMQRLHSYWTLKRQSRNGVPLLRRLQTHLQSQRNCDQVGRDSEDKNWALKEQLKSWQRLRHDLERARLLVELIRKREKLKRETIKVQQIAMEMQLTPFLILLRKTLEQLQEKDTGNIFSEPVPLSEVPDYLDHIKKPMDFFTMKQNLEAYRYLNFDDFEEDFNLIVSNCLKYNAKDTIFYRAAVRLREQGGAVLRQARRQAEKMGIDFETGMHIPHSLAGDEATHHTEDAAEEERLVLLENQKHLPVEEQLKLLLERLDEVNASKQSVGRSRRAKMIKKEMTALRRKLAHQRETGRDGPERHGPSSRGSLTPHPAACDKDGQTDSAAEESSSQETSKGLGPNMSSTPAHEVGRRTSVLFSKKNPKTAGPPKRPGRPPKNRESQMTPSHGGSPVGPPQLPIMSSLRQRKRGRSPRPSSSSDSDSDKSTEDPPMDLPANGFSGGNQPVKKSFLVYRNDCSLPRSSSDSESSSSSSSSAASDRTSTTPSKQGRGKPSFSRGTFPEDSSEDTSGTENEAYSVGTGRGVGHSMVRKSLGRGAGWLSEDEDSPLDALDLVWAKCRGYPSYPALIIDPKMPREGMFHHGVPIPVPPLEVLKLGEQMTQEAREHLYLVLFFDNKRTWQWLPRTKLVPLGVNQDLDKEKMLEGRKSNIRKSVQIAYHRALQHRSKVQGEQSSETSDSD
Nature of the data set: BRPF1 SGC Tm panel (DSF). The note with it: for ΔTm: Compound concentration 10.0 uM.

For data set [2], the target named is Sodium-dependent dopamine transporter (Homo sapiens) (UniProt Q01959). The note with it: Compound concentration 10.0 uM.
Chain of Sodium-dependent dopamine transporter (Homo sapiens) (Q01959 whole entry): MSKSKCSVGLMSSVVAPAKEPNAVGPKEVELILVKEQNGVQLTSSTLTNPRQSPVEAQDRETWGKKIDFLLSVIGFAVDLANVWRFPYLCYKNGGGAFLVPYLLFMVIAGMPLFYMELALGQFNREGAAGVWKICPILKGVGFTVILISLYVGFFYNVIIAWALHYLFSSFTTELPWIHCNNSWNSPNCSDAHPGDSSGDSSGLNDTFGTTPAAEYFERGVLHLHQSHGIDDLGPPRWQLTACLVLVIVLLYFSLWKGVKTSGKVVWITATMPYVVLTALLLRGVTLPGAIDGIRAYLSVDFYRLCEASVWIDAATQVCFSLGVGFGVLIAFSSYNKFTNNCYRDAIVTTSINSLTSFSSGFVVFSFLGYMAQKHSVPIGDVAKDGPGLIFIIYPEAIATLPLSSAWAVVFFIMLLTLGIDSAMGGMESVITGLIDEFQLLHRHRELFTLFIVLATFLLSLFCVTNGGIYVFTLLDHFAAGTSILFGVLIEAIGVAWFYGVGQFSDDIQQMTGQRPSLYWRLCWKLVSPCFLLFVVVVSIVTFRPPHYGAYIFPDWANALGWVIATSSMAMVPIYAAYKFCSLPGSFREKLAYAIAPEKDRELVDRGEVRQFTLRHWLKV
The target of data set [3] is T3, 5-hydroxytryptamine receptor 2C (Homo sapiens) (UniProt P28335).
T3 sequence (whole entry): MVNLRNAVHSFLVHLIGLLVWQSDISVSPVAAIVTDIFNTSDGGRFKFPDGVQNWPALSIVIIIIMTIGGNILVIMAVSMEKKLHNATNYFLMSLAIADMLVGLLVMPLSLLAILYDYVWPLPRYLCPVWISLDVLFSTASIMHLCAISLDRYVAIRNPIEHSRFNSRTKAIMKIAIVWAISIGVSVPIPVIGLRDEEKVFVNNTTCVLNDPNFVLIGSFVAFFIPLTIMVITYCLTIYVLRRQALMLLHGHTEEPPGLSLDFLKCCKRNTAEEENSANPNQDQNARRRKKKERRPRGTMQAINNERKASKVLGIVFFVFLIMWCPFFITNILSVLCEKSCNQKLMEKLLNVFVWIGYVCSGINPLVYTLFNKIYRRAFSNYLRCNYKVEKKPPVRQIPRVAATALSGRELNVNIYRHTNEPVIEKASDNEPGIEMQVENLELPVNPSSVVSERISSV
The note with it: Compound concentration 10.0 uM.

Data set [4] has as its target Phosphodiesterase 6 (Bos taurus) (UniProt P23439+P16586+P11541+P22571+P04972+Q95142). The data set can be described thus: Panlabs assay PDE6. The format is tissue-based. Also on record: compound concentration 10 uM. Conditions: retina, at 10 µM.
The target of data set [5] is Interleukin-1 receptor type 1 (Mus musculus) (UniProt P13504). Nature of the data set: Interleukin IL-1 Eurofins Panlabs panel. The note with it: Compound concentration 10.0 uM.
Chain of Interleukin-1 receptor type 1 (Mus musculus) (P13504 whole entry): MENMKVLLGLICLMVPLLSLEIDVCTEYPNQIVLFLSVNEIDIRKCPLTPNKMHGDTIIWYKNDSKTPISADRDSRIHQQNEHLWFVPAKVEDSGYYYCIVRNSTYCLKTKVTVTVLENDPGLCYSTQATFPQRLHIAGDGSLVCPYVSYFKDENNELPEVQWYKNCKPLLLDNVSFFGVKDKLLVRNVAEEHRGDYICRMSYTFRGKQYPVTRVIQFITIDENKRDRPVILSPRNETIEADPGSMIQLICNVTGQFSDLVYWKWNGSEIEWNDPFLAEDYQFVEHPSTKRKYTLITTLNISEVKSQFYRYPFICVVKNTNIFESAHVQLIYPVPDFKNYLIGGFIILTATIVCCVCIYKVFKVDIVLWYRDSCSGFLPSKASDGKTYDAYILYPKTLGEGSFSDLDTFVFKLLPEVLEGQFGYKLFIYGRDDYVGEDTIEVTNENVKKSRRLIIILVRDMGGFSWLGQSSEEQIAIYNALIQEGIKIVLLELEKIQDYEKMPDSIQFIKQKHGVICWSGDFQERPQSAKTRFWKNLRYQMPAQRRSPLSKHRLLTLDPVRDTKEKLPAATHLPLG
Data set [6] deals with Cannabinoid receptor 1 (Homo sapiens) (UniProt P21554). Nature of the data set: Cannabinoid CB1 Eurofins Panlabs panel. The note with it: Compound concentration 10.0 uM.
Chain of Cannabinoid receptor 1 (Homo sapiens) (P21554 whole entry): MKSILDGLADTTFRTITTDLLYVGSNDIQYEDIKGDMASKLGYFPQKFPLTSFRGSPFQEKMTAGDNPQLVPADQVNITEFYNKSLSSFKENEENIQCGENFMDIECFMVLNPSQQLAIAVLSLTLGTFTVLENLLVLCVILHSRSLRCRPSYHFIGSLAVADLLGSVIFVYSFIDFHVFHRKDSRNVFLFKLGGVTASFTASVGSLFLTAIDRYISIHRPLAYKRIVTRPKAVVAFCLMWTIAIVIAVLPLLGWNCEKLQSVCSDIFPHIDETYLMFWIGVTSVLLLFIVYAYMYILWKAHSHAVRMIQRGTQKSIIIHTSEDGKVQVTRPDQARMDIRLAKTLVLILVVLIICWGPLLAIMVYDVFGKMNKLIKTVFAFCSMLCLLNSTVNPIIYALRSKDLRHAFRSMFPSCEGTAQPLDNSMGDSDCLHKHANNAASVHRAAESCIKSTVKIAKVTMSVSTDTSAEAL
In data set [7] the target is Prostaglandin E2 receptor EP3 subtype (Homo sapiens) (UniProt P43115). The data set can be described thus: Prostanoid EP3 Eurofins Panlabs panel. The note with it: concentration not given here.
Chain of Prostaglandin E2 receptor EP3 subtype (Homo sapiens) (P43115 whole entry): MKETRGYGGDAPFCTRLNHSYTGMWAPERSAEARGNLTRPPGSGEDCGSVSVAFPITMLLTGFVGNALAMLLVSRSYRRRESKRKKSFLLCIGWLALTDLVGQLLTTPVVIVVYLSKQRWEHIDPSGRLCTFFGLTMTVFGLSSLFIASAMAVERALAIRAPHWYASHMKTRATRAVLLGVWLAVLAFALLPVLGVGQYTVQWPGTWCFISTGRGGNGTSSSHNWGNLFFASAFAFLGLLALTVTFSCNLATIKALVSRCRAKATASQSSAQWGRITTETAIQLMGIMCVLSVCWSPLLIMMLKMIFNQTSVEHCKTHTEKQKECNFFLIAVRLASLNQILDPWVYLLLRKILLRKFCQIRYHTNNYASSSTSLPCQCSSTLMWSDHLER
The target of data set [8] is Monoamine oxidase A (MAO-A) (Homo sapiens, UniProt P21397). The data set can be described thus: Monoamine Oxidase MAO-A Eurofins Panlabs panel. The note with it: compound concentration 10 uM.
Chain of Monoamine oxidase A (MAO-A) (P21397 whole entry): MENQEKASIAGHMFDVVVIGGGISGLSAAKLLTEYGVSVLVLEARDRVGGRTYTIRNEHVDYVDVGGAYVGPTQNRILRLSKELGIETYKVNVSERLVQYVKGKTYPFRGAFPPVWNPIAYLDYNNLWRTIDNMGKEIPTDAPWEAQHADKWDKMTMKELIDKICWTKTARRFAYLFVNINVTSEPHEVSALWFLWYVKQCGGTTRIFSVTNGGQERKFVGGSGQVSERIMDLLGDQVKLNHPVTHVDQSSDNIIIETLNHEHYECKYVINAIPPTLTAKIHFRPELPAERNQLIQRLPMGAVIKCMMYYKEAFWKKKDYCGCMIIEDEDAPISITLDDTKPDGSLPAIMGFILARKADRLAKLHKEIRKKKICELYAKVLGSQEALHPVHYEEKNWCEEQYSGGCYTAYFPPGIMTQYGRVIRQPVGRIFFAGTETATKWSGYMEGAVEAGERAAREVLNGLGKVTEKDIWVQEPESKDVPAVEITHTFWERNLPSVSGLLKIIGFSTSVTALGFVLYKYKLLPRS

With `CCC[C@@H]1CNCc2c1[nH]c(=O)c(C#N)c2N1CCC2(CC1)CC2`, the delta Tm Staurosporine positive control in [1] was 19.7; on Peregrin (Homo sapiens), -0.107. Further, the figures for the ΔTm (in data set [1]; at Peregrin (Homo sapiens)) were -0.315 and -0.426, respectively. The figures for the inhibition in [2], in [3] and in data set [4] were 7.47%, 9.88% and 16.7%, respectively.
Consider `CCC[C@H]1CNCc2c1[nH]c(=O)c(C#N)c2N1CCC2(CC1)CC2`, for which the delta Tm Staurosporine positive control in data set [1] is 19.7; at Peregrin (Homo sapiens), -0.107. Besides, the ΔTm in data set [1] was -0.34; on Peregrin (Homo sapiens), -0.754. Moreover, the inhibition (commonly the share of the control response that was lost under treatment) in data set [5] is 14%; in data set [6], 31.2%; in data set [2], 3.42%; in data set [3], 8.81%; in data set [7], 0%. Also, in data set [8], the inhibition at 10 µM was 2%.
